Measurements reported in US10577356B2, “Beta-arrestin-biased cannabinoid CB1 receptor agonists and methods for making and using them” (priority 2014, dated 2020).
Entries after “also recorded” stand apart in the source; their conditions may differ.

Tests used:
[1] = molecular target: T1, CB1 (Homo sapiens, UniProt P21554); test: Effect on CP55,940 binding (Bmax) at CB1 (FIG. 3); conditions: compared with ORG27569
Target sequence in this assay (P21554 whole entry, species assumed): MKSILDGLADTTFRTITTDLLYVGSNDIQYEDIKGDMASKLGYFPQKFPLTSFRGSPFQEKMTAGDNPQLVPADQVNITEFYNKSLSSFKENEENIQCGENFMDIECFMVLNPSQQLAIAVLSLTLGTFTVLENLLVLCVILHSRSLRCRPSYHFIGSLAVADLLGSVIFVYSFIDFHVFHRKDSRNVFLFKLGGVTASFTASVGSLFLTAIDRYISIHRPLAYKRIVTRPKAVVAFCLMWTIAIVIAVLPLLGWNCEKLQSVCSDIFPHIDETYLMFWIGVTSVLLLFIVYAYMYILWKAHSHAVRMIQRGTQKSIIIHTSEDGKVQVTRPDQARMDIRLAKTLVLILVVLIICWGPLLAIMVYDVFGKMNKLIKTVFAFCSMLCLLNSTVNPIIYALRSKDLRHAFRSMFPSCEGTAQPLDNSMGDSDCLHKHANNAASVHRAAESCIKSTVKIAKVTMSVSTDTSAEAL

[2] = molecular target: T2, CB1 (Mus musculus, UniProt P47746); test: Basal G protein signaling, GTP-gamma-S binding, compound applied alone, membranes (FIG. 4-7); type: biochemical
T2 construct: from tissue
T2 sequence (P47746 whole entry): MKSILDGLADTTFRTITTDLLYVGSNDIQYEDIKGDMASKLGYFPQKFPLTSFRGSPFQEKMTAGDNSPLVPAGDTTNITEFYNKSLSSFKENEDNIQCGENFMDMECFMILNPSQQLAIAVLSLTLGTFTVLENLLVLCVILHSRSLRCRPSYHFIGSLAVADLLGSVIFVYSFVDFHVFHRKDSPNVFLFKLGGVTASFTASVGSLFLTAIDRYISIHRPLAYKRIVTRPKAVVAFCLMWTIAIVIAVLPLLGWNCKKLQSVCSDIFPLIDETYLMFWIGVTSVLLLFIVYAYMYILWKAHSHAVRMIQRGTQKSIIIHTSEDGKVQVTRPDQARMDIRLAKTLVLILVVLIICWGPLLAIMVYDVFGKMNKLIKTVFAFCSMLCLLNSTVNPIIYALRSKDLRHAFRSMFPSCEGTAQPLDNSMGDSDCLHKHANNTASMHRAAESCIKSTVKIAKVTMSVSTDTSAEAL
Description: (§1) Compounds were tested using a GTPγS assay as previously described (Shore D M, et al. J Biol Chem. 2014; 289(9):5828-45; incorporated herein by reference in its entirety). Compounds were tested using an ERK assay as previously described (Kapur A, et al. J Biol Chem. 2009; 284:29817-29827; incorporated herein by reference in its entirety).

[3] = molecular target: T1, CB1; test: Antagonism of CP55,940's [35S]GTPγS signaling / allosteric modulation of CB1 (FIG. 3); type: biochemical; conditions: compared with ORG27569
Description: as §1
Target sequence in this assay (P21554 whole entry, species assumed): as the sequence (P21554 whole entry, species assumed) above

[4] = molecular target: T1, CB1; test: ERK assay, pERK production in cells (FIG. 8, FIG. 10); type: cell-based; conditions: compound applied alone
Description: as §1
Target sequence in this assay (P21554 whole entry, species assumed): as above

[5] = molecular target: T1, CB1; test: GTPγS stimulation levels in hCB1/HEK cells (FIG. 9); type: biochemical; set-up: expressed in transfected cells; host or cells: HEK cells (hCB1/HEK); conditions: compound applied alone
Description: as §1
Target sequence in this assay (P21554 whole entry): as the sequence (P21554 whole entry, species assumed) above

SMILES | effect on CP55,940's Bmax [1] | effect on basal G protein signaling (GTP-gamma-S binding) [2] | allosteric modulation of CB1 (effects on binding and G protein-mediated signaling) [3] | antagonism of CP55,940's [35S]GTPλS signaling [3] | ERK signaling / pERK production [4] | GTP-gamma-S binding at the human CB1 receptor [5]
CCc1c(C(=O)NC[C@@H](O)c2ccc(N3CCCCC3)cc2)[nH]c2ccc(Cl)cc12 [Compound 1, 5-Chloro-3-ethyl-N-[(2S)-2-hydroxy-2-[4-(piperidin-1-yl)phenyl]ethyl]-1H-indole-2-carboxamide] | does not improve CP55,940's Bmax as well as ORG27569 | no effect on GTP-gamma-S binding; also recorded: does not act as an inverse agonist of [^35S]GTPλS signaling | less potent and efficacious negative allosteric modulator of CB1 than ORG27569 | does not antagonize CP55,940's [^35S]GTPλS signaling as well as ORG27569 | – | –
CCc1c(C(=O)NC[C@H](O)c2ccc(N3CCCCC3)cc2)[nH]c2ccc(Cl)cc12 [Compound 2, 5-Chloro-3-ethyl-N-[(2R)-2-hydroxy-2-[4-(piperidin-1-yl)phenyl]ethyl]-1H-indole-2-carboxamide] | improves CP55,940's Bmax better than as ORG27569 | partial agonist in membranes; also recorded: does not act as an inverse agonist of [^35S]GTPλS signaling; also recorded: may act as a weak agonist of G protein-mediated signaling | more potent negative allosteric modulator than ORG27569 | antagonizes CP55,940's [^35S]GTPλS signaling as well as ORG27569 | – | –
CCc1c(C(=O)NCCc2ccc(N3CCCCC3)cc2C2CC2)[nH]c2ccc(Cl)cc12 [Compound 3, 5-Chloro-N-{2-[2-cyclopropyl-4-(piperidin-1-yl)phenyl]ethyl}-3-ethyl-1H-indole-2-carboxamide] | does not improve CP55,940's Bmax (and may actually reduce it) | no effect on GTP-gamma-S binding | does not act as an allosteric modulator of CB1 | – | robust effect, particularly at early time points, compared to CP (CP55,940); also recorded: does generate an ERK signal | no effect on GTP-gamma-S binding; also recorded: did not have any significant effect on [^35S]GTPλS signaling when applied alone
CCc1c(C(=O)NCCc2ccc(N3CCCCC3)cc2)[nH]c2ccc(Cl)cc12 [ORG27569, reference compound] | – | – | – | – | – | causes a decrease (including below basal)
CCCCCCC(C)(C)c1ccc([C@@H]2C[C@H](O)CC[C@H]2CCCO)c(O)c1 [CP55940, reference compound] | – | – | – | – | – | causes a rise in GTP-gamma-S binding
O=C(NCCc1ccc(N2CCCCC2)cc1)c1[nH]c2ccc(Cl)cc2c1Cc1ccccc1 [Compound 4, 3-Benzyl-5-chloro-N-{2-[4-(piperidin-1-yl)phenyl]ethyl}-1H-indole-2-carboxamide] | did not affect CP55,940's Bmax | no effect on GTP-gamma-S binding; also recorded: does not act as an inverse agonist of [^35S]GTPλS signaling | – | antagonized CP55,940's [^35S]GTPλS signaling as well as ORG27569 | may act as a weak inverse agonist of ERK signaling | –
